# Like-named read-outs stand apart in the source and are kept apart here.
# What was measured:
# [1] = target: HDAC6 (Homo sapiens (Human), UniProt Q9UBN7)
# [2] = target: human HDAC2 (Homo sapiens (Human), UniProt Q92769); assay: HDAC2 inhibition assay (modified FLUOR DE LYS, 384-well); format: biochemical; settings: […] enzyme, 40 μM substrate BML-KI104, 3 h pre-incubation; read-out: HDAC2 IC50
# [3] = tested on: KARN cells (Jurkat 2C4); assay: cells; settings: Homo sapiens
# [4] = target: human HDAC3/SMRT heterodimer (Homo sapiens (Human), UniProt O15379)
# [5] = target: human HDAC8 (Homo sapiens (Human), UniProt Q9BY41); assay: HDAC8 inhibition assay (modified FLUOR DE LYS, 384-well); format: biochemical; settings: […] enzyme, 200 μM substrate BML-KI178, 3 h pre-incubation; read-out: HDAC8 IC50
# Experimental: The histone deacetylase activities of HDAC1, HDAC2, HDAC3, HDAC6, and HDAC8 were measured in modified FLUOR DE LYS assays in 384-well format. In this assay, HDAC enzymes are initially incubated with an F-acetyl (or -trifluoroacetyl)-L-lysine-containing substrate with a C-terminal amide having aminomethylcoumarin as the amine component. HDACs cleave the F-acetyl group, rendering the resulting product susceptible to AMC cleavage by trypsin. The released AMC is then detected by its fluorescence. […] All steps were performed at room temperature (23° C.). The assay was performed by pre-incubating serial dilutions of test compounds with the target HDAC prior to initiation with substrate. […] Final conditions used for each assay were: 1. […] The reactions were stopped and developed by addition of 30 ul of HDAC developer solution containing a saturating level of HDAC inhibitor as follows: 1. […] For data analysis, background subtracted product (fluorescence) vs. time data for each inhibitor concentration was fitted using a 4-parameter fit.
# [6] = target: human HDAC1 (Homo sapiens (Human), UniProt Q13547)
# [7] = read-out: Karn EC50 nM 0.1% NHS, 0.1% normal human serum, luciferase induction, 2 μM SAHA = 100%
# [8] = read-out: Karn EC50 nM 5% NHS, 5% normal human serum, luciferase induction, 2 μM SAHA = 100%
# Sequence of human HDAC3/SMRT heterodimer (O15379 whole entry): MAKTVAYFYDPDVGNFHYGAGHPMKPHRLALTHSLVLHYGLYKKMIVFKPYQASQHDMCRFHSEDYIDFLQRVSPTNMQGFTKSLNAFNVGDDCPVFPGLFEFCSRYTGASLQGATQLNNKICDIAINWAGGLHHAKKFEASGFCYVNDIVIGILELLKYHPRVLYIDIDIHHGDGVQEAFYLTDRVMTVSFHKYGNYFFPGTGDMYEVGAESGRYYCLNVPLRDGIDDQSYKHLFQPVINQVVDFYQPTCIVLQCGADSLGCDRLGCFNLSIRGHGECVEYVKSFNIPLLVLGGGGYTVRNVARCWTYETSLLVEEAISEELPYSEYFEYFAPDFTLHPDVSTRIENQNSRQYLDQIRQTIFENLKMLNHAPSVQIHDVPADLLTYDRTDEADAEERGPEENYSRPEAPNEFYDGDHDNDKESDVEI
# Sequence of human HDAC3/SMRT heterodimer (Q9Y618 1-899 partner): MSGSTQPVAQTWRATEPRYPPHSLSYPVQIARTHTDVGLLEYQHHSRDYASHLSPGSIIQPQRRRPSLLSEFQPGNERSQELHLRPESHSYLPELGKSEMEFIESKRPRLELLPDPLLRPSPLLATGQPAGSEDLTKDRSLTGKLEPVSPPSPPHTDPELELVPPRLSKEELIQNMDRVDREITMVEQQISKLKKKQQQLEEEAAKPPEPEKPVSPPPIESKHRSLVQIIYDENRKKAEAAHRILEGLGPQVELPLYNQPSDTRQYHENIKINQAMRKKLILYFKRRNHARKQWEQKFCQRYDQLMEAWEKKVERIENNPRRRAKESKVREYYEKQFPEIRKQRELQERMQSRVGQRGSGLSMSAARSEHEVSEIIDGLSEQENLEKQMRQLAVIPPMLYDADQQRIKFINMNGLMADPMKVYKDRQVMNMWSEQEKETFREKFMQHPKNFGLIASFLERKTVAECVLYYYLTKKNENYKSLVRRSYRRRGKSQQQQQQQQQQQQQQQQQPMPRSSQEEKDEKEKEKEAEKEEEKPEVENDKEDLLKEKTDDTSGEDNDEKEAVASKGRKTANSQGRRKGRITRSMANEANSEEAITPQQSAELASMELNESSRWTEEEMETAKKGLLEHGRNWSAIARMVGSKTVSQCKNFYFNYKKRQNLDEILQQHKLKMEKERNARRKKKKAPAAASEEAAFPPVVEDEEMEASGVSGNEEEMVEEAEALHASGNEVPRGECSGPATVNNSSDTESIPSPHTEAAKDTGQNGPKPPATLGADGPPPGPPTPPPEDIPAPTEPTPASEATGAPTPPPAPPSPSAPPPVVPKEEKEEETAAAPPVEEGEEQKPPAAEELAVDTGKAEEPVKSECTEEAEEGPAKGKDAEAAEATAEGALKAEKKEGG
# Sequence of human HDAC1 (Q13547 whole entry): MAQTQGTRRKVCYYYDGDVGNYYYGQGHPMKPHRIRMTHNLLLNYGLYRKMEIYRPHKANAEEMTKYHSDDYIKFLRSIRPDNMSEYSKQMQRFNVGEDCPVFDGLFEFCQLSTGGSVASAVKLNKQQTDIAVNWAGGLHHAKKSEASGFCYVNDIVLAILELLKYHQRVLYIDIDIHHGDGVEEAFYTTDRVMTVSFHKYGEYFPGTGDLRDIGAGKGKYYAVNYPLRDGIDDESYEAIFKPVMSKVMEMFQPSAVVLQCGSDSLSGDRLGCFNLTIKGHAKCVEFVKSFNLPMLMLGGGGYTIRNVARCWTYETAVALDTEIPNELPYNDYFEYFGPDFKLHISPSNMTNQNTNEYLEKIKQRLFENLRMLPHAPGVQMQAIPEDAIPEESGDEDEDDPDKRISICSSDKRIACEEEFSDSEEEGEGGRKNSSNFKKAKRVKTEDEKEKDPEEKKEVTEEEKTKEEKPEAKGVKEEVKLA
# Sequence of human HDAC2 (Q92769 whole entry): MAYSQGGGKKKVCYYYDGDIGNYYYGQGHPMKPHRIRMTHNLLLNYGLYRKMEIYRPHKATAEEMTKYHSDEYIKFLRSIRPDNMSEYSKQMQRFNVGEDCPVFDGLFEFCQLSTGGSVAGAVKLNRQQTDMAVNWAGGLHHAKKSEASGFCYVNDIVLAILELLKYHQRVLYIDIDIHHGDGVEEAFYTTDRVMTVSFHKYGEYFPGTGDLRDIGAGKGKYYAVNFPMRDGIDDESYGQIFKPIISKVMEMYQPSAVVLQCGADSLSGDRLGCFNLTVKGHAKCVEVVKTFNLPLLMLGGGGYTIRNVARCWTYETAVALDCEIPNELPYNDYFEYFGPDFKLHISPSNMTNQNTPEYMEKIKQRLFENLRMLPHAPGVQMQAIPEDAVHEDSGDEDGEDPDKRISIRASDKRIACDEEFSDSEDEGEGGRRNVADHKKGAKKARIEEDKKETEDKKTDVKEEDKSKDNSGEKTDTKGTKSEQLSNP
# Sequence of HDAC6 (Q9UBN7 whole entry): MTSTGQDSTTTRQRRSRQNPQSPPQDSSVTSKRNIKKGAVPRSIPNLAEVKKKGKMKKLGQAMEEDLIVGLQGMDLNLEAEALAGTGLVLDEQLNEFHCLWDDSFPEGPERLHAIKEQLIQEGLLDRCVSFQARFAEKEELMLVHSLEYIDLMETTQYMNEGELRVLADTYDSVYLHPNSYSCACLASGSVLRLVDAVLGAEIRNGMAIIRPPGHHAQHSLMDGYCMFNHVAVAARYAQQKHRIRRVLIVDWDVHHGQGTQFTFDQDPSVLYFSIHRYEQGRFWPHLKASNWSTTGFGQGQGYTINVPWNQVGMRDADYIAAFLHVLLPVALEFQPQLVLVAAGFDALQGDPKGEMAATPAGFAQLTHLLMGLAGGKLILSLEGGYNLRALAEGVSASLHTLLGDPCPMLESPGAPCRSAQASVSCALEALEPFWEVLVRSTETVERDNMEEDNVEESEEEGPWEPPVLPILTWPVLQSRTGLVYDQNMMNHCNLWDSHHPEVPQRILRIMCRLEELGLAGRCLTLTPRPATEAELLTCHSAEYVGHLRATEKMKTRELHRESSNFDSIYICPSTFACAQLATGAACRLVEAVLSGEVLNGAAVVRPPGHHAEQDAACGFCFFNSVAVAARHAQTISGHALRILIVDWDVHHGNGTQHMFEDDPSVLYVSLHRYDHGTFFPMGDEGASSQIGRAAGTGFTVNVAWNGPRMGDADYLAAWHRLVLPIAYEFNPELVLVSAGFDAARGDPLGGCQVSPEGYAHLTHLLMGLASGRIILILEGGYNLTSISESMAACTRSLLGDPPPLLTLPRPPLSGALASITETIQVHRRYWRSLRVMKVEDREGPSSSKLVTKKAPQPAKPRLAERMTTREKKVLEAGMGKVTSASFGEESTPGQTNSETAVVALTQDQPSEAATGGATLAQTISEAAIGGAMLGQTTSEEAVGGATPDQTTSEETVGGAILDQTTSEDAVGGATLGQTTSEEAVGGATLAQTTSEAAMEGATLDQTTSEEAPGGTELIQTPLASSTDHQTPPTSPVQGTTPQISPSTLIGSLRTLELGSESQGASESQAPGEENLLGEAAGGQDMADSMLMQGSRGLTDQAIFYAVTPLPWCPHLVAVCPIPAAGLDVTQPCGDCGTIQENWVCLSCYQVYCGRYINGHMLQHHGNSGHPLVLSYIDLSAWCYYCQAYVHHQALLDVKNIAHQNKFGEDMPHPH
# Sequence of human HDAC8 (Q9BY41 whole entry): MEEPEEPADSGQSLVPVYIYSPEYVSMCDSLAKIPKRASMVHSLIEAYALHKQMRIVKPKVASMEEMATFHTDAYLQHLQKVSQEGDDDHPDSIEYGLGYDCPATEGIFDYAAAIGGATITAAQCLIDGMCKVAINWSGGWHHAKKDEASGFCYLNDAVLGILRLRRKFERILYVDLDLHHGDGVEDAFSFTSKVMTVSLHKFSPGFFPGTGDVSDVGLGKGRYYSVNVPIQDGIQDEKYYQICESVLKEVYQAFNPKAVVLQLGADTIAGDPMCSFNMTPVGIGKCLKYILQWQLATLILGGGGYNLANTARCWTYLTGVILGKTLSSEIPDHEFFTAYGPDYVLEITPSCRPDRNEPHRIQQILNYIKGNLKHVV
Structure (SMILES),IC50 [1],IC50 [2],"EC50 [3, 7]","EC50 [3, 8]",IC50 [4],IC50 [5],IC50 [6]
CCN(CC)CC(=O)N[C@@H](CCCCCC(=O)c1ncco1)c1ncc(-c2cc3ccccc3nc2OC)[nH]1 [Example 50],1700 nM,3.2 nM,21 nM,140 nM,1.3 nM,47 nM,0.99 nM
COc1nc2ccccc2cc1-c1cnc([C@H](CCCCCC(=O)c2ncco2)NC(=O)CN2CCC2)[nH]1 [Example 51],690 nM,2.3 nM,11 nM,56 nM,0.66 nM,31 nM,0.38 nM
COc1nc2ccccc2cc1-c1cnc([C@H](CCCCCC(=O)c2ncco2)NC(=O)CN2CCCCC2)[nH]1 [Example 53],1100 nM,4.9 nM,26 nM,220 nM,1.6 nM,92 nM,2.4 nM
COc1cc2nc(C)ccc2cc1-c1cnc([C@H](CCCCCC(=O)c2cc(C)on2)NC(=O)CN(C)C)[nH]1 [Example 56],45000 nM,1.8 nM,6.4 nM,11 nM,0.37 nM,310 nM,0.4 nM
COc1cc2nc(C)ccc2cc1-c1cnc([C@H](CCCCCC(=O)c2cc(C)on2)NC(=O)C2CN(C)C2)[nH]1 [Example 57],45000 nM,1 nM,5.5 nM,13 nM,0.24 nM,150 nM,0.23 nM
COc1cc2nc(C)ccc2cc1-c1cnc([C@H](CCCCCC(=O)c2cc(C)on2)NC(=O)C2CC23CCN(C)CC3)[nH]1 (stereo partly shown) [Example 58],45000 nM,0.9 nM,6.8 nM,11 nM,0.18 nM,120 nM,0.18 nM
CN(C)C1(C(=O)N[C@@H](CCCCCC(=O)c2ccon2)c2ncc(-c3ccccc3F)[nH]2)CCC1 [Example 63],> 900 nM,2.1 nM,11 nM,32 nM,0.46 nM,3.8 nM,0.54 nM
CN(C)C1(C(=O)N[C@@H](CCCCCC(=O)c2ccon2)c2ncc(-c3ccccc3F)[nH]2)CCCC1 [Example 64],> 900 nM,2.1 nM,16 nM,28 nM,0.64 nM,3.5 nM,0.58 nM
"CN[C@@H](CCCCCC(=O)c1ncco1)c1ncc(-c2ccc3nc(C)ccc3c2)[nH]1 [Example 75, (S)-7-(methylamino)-7-(5-(2-methylquinolin-6-yl)-1H-imidazol-2-yl)-1-(oxazol-2-yl)heptan-1-one]",26000 nM,7 nM,300 nM,220 nM,3.9 nM,3400 nM,2.4 nM
"COc1cc2nc(C)ccc2cc1-c1cnc([C@H](CCCCCC(=O)c2ncco2)NCc2ccccc2)[nH]1 [Example 82, (S)-7-(benzylamino)-7-(5-(7-methoxy-2-methylquinolin-6-yl)-1H-imidazol-2-yl)-1-(oxazol-2-yl)heptan-1-one]",1500 nM,7.8 nM,180 nM,320 nM,2.7 nM,1800 nM,3.1 nM
COc1cc2nc(C)ccc2cc1-c1cnc([C@H](CCCCCC(=O)c2ccon2)NC(=O)CN(C)C)[nH]1 [Example 91],11000 nM,1.9 nM,17 nM,22 nM,1.5 nM,14 nM,1.5 nM
COc1cc2c(ccc(=O)n2C)cc1-c1cnc([C@H](CCCCCC(=O)c2ncco2)NC(=O)CN(C)C)[nH]1 [Example 92],4500 nM,6.2 nM,32 nM,64 nM,1.1 nM,57 nM,0.92 nM
COc1cc2c(ccc(=O)n2C)cc1-c1cnc([C@H](CCCCCC(=O)c2ccon2)NC(=O)CN(C)C)[nH]1 [Example 93],4500 nM,2.2 nM,6.6 nM,14 nM,0.46 nM,3.5 nM,0.37 nM
"CCn1ccc2cc(-c3cnc([C@H](CCCCCC(=O)c4ncco4)NC(=O)CN(C)C)[nH]3)c(OC)cc2c1=O [Example 96, (S)-2-(dimethylamino)-N-(1-(5-(2-ethyl-7-methoxy-1-oxo-1,2-dihydroisoquinolin-6-yl)-1H-imidazol-2-yl)-7-(oxazol-2-yl)-7-oxoheptyl)acetamide]",920 nM,3.8 nM,14 nM,24 nM,0.94 nM,57 nM,0.51 nM
"COc1cc2c(ccc(=O)n2C)cc1-c1cnc([C@H](CCCCCC(=O)c2ccon2)NC(=O)C2CN(C)C2)[nH]1 [Example 102, (S)-N-(7-(isoxazol-3-yl)-1-(5-(7-methoxy-1-methyl-2-oxo-1,2-dihydroquinolin-6-yl)-1H-imidazol-2-yl)-7-oxoheptyl)-1-methylazetidine-3-carboxamide]",> 900 nM,0.78 nM,170 nM,270 nM,0.25 nM,3.1 nM,0.24 nM
"COc1cc2nc(C)ccc2cc1-c1cnc([C@H](CCCCCC(=O)c2ccon2)NC(=O)C2CN(C)C2)[nH]1 [Example 103, (S)-N-(7-(isoxazol-3-yl)-1-(5-(7-methoxy-2-methylquinolin-6-yl)-1H-imidazol-2-yl)-7-oxoheptyl)-1-methylazetidine-3-carboxamide]",> 900 nM,0.44 nM,6 nM,8.3 nM,0.18 nM,3 nM,0.13 nM
"CN1CCC2(CC1)C[C@@H]2C(=O)N[C@@H](CCCCCC(=O)c1ccon1)c1[nH]c(-c2ccccc2F)nc1Cl [Example 112, (S)-N-((S)-1-(4-chloro-2-(2-fluorophenyl)-1H-imidazol-5-yl)-7-(isoxazol-3-yl)-7-oxoheptyl)-6-methyl-6-azaspiro[2.5]octane-1-carboxamide]",4600 nM,0.25 nM,1.4 nM,1.4 nM,0.035 nM,23 nM,0.083 nM
"COc1cc2nc(C)ccc2cc1-c1cnc([C@H](CCCCCC(=O)c2ncco2)NC(=O)[C@H]2CC23CCN(C)CC3)o1 [Example 113, (S)-N-((S)-1-(5-(7-methoxy-2-methylquinolin-6-yl)oxazol-2-yl)-7-(oxazol-2-yl)-7-oxoheptyl)-6-methyl-6-azaspiro[2.5]octane-1-carboxamide]",200 nM,2.5 nM,18 nM,12 nM,0.58 nM,180 nM,0.41 nM
"COc1nc(C2CC2)ccc1-c1c[nH]c([C@H](CCCCCC(=O)c2ncco2)NC(=O)[C@H]2CC23CCN(C)CC3)n1 [Example 115, (S)-N-((S)-1-(4-(6-cyclopropyl-2-methoxypyridin-3-yl)-1H-imidazol-2-yl)-7-(oxazol-2-yl)-7-oxoheptyl)-6-methyl-6-azaspiro[2.5]octane-1-carboxamide]",300 nM,3.9 nM,37 nM,58 nM,0.84 nM,51 nM,0.66 nM

# — patent US12331044B2, “Inhibitors of histone deacetylase useful for the treatment or prevention of HIV infection” (Merck Sharp & Dohme LLC, priority 2018, dated 2025)
